Data taken from patent US7157092B1, “Acyl pseudodipeptides, preparation method and pharmaceutical compositions containing same” (Om Pharma, priority 1998, dated 2007).
Like-named read-outs stand apart in the source and are kept apart here.

Assays:
gp63 antigen [1] = assay type: in vivo, CBA mice; conditions: 2 s.c. injections gp63 2 μg with 2×50 μg OM-294-MP or 200 μg BCG
LmCPb antigen = test: Primary response to single injection of Leishmania mexicana LmCPb antigen: lymph node cell proliferation (3H-TdR take-up); assay type: in vivo, CBA mice; conditions: single injection LmCPb 2 μg + 50 μg adjuvant
Method: CBA mice were administered through the tail a single injection of LmCPb in a 2 μg dose either in combination or not with 50 μg of OM-294-MP adjuvant. A control group was administered one injection of physiological saline buffer (non immunized subjects). Eleven days later, cells of the inguinal and periaortic lymph nodes (groups of 3 mice each) were cultured and the proliferative response directed to the purified LmCPb antigen, to a preparation of whole amastigotes of Leishmania mexicana and to concanvalin A (ConA) was evaluated by measuring tritiated thymidine take-up (^3H-TdR). γ IFN and IL-4 cytokine production by lymph node lymphocytes rechallenged in vitro with LmCPb antigen of Leishmania mexicana or by amastigotes was equally determined by ELISA (MIF00 γ IFN & M4000 IL-4 kits, R&D Systems Europe Ltd, Abingdon, UK) using a sample of each culture supernatant of lymph node lymphocytes before addition of ^3H-TdR.
Values reported in the tables stand for the mean value±standard deviation (triplicate) expressed in cpm for ^3H-TdR take-up and the arithmetic mean±standard deviation (triplicate) expressed in pg per ml for cytokine production in supernatant fluids.
Antigen: LmCPb stock solution is prepared at a concentration of 40 μg/ml in PBS (2×).
The negative control consists of a PBS solution without antigen.
Antigen-adjuvant mixture: Adjuvants are maintained for 10 minutes at 37° C. before vortexing for 3 minutes. Then, the antigen (1 volume) and the adjuvant (1 volume) are mixed and vortexed briefly before being incubated for 20 minutes at 37° C., and finally the whole mixture is vortexed again for 3 minutes.

[2] = tested on: predendritic cells (DC-6); conditions: DC-9 stage
gp63 antigen [3] = assay type: in vivo, CBA mice
[4] = tested on: mouse bone marrow stem cells; test: Bone marrow stem cell proliferation (XTT); assay type: cell-based, C57/BL6 mice; conditions: 7 days incubation, FIG. 1
Method: Two six-week old male C57/BL6 mice were killed by CO2 inhalation followed by cervical dislocation. The mice were washed with alcohol, and the skin of the posterior members was entirely removed. The hip, femur and tibia bones were removed by joint disruption. The flesh was grossly removed using a scalpel. The bones were cleaned and the bone ends were cut with scissors. The marrrow was extracted from the bone lumen by injecting three times 1 ml of Dulbecco's Modified Eagle Medium (DH medium) from the extremities which were cut with scissors. The cells were suspended in DH medium and centrifuged at 300×g for 5 minutes. The supernatant fluid was discarded and the stem cells were suspended in DH medium supplemented with 20% foetal calf serum (FCS) The cell concentration was adjusted to 500 000 cells/ml. […]
Proliferation is determined by measuring the oxydation of a chromogenic substrate (XTT) in mitochondria of viable cells.
7 days later, the microtiter plates are centrifuged for 5 minutes at 400×g, and 100 μl of the supernatant fluid are withdrawn and discarded. […] After 8 hour incubation at 37° C. under 8% CO2 in an incubator at 100% RH, the microtiter plates are read with a spectrophotometer at 480 nm against a standard at 690 nm.
The results are expressed as mean values (+standard deviation) by plotting a dose versus response curve. […]

[5] = Weight change in rats of the peritoneal carcinoma study; assay type: in vivo, BDIX rats
[6] = tested on: PROb syngenic tumoral line; test: Treatment of peritoneal carcinoma induced by PROb cells in BDIX rats
[7] = 10 i.v. injections of 1 mg/kg from day 13
[8] = 10 i.v. injections of 1 mg/kg from day 13, dissection at D42

For `CCCCCCCCCCCC(=O)O[C@H](CCCCCCCCCCC)CC(=O)NC(CCOP(=O)(O)O)C(=O)NCCCC(CO)NC(=O)C[C@H](O)CCCCCCCCCCC` (stereo partly drawn) [OM-294-MP, 3-[(R)-3-dodecanoyloxytetradecanoylamino]-4-oxo-5-aza-9-[(R)-3-hydroxytetradecanoylamino]-decane-1,10-diol 1-dihydrogenphosphate], the “murine T lymphocyte proliferation, 3H-TdR take-up” value (from here on “murine T lymphocyte proliferation”) (gp63 antigen [1]; gp63 in vitro 0 μg/ml) was 2.8 ± 0.7 cpm × 10^−3/ml, the “murine T lymphocyte proliferation” value (gp63 antigen [1]; gp63 in vitro 0.16 μg/ml) was 65 ± 11 cpm × 10^−3/ml and the “murine T lymphocyte proliferation” value (gp63 antigen [1]; gp63 in vitro 0.31 μg/ml) was 92 ± 11 cpm × 10^−3/ml. The “murine T lymphocyte proliferation” value (gp63 antigen [1]; gp63 in vitro 0.62 μg/ml) was 93 ± 13 cpm × 10^−3/ml, the “murine T lymphocyte proliferation” value (gp63 antigen [1]; gp63 in vitro 1.25 μg/ml) was 39 ± 7 cpm × 10^−3/ml and the 3H-TdR take-up (LmCPb antigen; in vitro: Amastigotes 1.9 × 10^−6/ml) was 44 ± 7 cpm × 10^−3/ml. It also gave a 3H-TdR take-up (LmCPb antigen; in vitro: Amastigotes 6 × 10^−6/ml) of 79 ± 6 cpm × 10^−3/ml, a 3H-TdR take-up (LmCPb antigen; in vitro: Amastigotes 17 × 10^−6/ml) of 119 ± 4 cpm × 10^−3/ml and a 3H-TdR take-up (LmCPb antigen; in vitro: Con A 5 μg/ml) of 196 ± 10 cpm × 10^−3/ml. The 3H-TdR take-up (LmCPb antigen; in vitro: LmCPb 0.6 μg/ml) was 19 ± 4 cpm × 10^−3/ml, the 3H-TdR take-up (LmCPb antigen; in vitro: LmCPb 1.7 μg/ml) was 40 ± 4 cpm × 10^−3/ml and the 3H-TdR take-up (LmCPb antigen; in vitro: LmCPb 5 μg/ml) was 80 ± 5 cpm × 10^−3/ml. For the same compound, the 3H-TdR take-up (LmCPb antigen; in vitro: LmCPb 15 μg/ml) was 140 ± 10 cpm × 10^−3/ml, the 3H-TdR take-up (LmCPb antigen; in vitro: No stimulant) was 11 ± 2 cpm × 10^−3/ml and the “CD40 expression, % of mean fluorescence based on LPS-induced expression” value ([2]; FIG. 6) was 39%. The “CD86 expression, % of mean fluorescence based on LPS-induced expression” value ([2]; FIG. 7) was 77%, the “CD83 expression, % of mean fluorescence based on LPS-induced expression” value ([2]; FIG. 8) was 60% and the “CD80 expression, % of mean fluorescence based on LPS-induced expression” value ([2]; FIG. 9) was 62%. For the same compound, the IL-4 concentration (gp63 antigen [3]; gp63 in vitro 0) was less than 8 pg/mL, the “γ IFN concentration” value (gp63 antigen [3]; gp63 in vitro 0) was less than 9 pg/mL and the IL-4 concentration (gp63 antigen [3]; gp63 in vitro 0.3) was 125 pg/mL. The “γ IFN concentration” value (gp63 antigen [3]; gp63 in vitro 0.3) was 135 pg/mL, the IL-4 concentration (gp63 antigen [3]; gp63 in vitro 0.6) was 83 pg/mL and the “γ IFN concentration” value (gp63 antigen [3]; gp63 in vitro 0.6) was 120 pg/mL. For the same compound, the “cell proliferation of mouse bone marrow stem cells” value [4] was “more moderate response than the diphosphorylated product”.
With `CCCCCCCCCCCC(=O)O[C@H](CCCCCCCCCCC)CC(=O)NC(CCOP(=O)(O)O)C(=O)NCCCC(COP(=O)(O)O)NC(=O)C[C@H](O)CCCCCCCCCCC` (stereo partly drawn) [OM-294-DP, 3-[(R)-3-dodecanoyloxytetradecanoylamino]-4-oxo-5-aza-9-[(R)-3-hydroxytetradecanoylamino]decan-1,10-diol 1, 10-bis(dihydrogenphosphate)] the “Weight of rats (mean ± standard deviation)” value ([5]; Day 0) was 277 ± 19, the “Weight of rats (mean ± standard deviation)” value ([5]; Day 13) was 310 ± 21 and the “Weight of rats (mean ± standard deviation)” value ([5]; Day 20) was 304 ± 23. For the same compound, the “Weight of rats (mean ± standard deviation)” value ([5]; Day 29) was 317 ± 24, the “Weight of rats (mean ± standard deviation)” value ([5]; Day 41) was 327 ± 26 and the “effect on weight change in comparison to NaCl alone” value ([5]; rat, in vivo) was “no significant effect on weight change”. The “Volume ascite, mean ± σ” value [6, 7] was 8 ± 23 ml/rat, the “Volume ascite, range” value [6, 7] was 0–73 ml/rat and the “animals surviving at day 42 following injection of tumor cells” value [6, 7] was 90%. For the same compound, the “Number of rats suffering from carcinoma belonging to class 0 (no nodules visible)” value [6, 8] was 4, the “Number of rats suffering from carcinoma belonging to class 1” value [6, 8] was 1 and the “Number of rats suffering from carcinoma belonging to class 2” value [6, 8] was 2. The “Number of rats suffering from carcinoma belonging to class 3” value [6, 8] was 1, the “Number of rats suffering from carcinoma belonging to class 4” value [6, 8] was 2 and the “anti-tumor activity in the peritoneal carcinoma model” value ([6]; rat, in vivo) was “remarkable anti-tumor activity”. For the same compound, the “Effect of product on ascite volume, p (Variance analysis)” value ([6]; versus NaCl) was “p < 0.05”, the “Effect of product on carcinoma classification, p (Kruskall-Wallis test)” value ([6]; versus NaCl) was “p < 0.05” and the “extension of rat survival rate, p (log rank test)” value ([6]; versus control) was less than 0.001.
